From patent US10787423B2, “Piperazine and piperidine derivatives, their synthesis and use thereof in inhibiting VDAC oligomerization, apoptosis and mitochondria dysfunction” (THE NATIONAL INSTITUTE FOR BIOTECHNOLOGY IN THE NEGEV LTD., priority 2015, dated 2020)
Where two headings read alike, the source gives them in different places.

Experiments:
[1] = system: Cyto c release from mitochondria; experiment: Selenite-induced Cytochrome c release from mitochondria in HEK-293 cells; type: cell-based; settings: Homo sapiens, HEK293, compound 2 h then selenite 15 μM 4 h, means±SD (n=3)
Procedure: One of the ways cell apoptosis is activated is by release of Cytochrome c (Cyto c) from the mitochondria into cytosol. […] Cyto c released to the cytosol may be analyzed by immunoblotting using Cyto c-specific antibodies.
Cells treated with apoptosis inducers in the absence or presence of the tested compounds were harvested, washed twice with PBS, pH 7.4 and gently resuspended at 6 mg/ml in ice-cold buffer (100 mM KCl, 2.5 mM MgCl2, 250 mM sucrose, 20 mM HEPES/KOH pH 7.5, 0.2 mM EDTA, 1 mM dithiothreitol, 1 μg/ml leupeptin, […] and 0.1 mM PMSF) containing 0.025% digitonin and incubated for 10 min on ice. Samples were centrifuged at 10,000×g (relative centrifugal force—RCF) at 4° C. for 5 min to obtain supernatants (cytosolic extracts free of mitochondria) and pellet (fraction that contains mitochondria). Cytochrome c released to the cytosol was analyzed by immunoblotting using Cytochrome c-specific antibodies. Anti-VDAC1 and anti-GAPDH antibodies were used to verify that the cytosolic extracts are mitochondria-free.
c. Cytochrome c (Cyto c) release was determined as described above in Methods (Cytochrome c release from mitochondria). Briefly, to assess Cyto c release, cells were incubated on ice for 10 min with 0.025% digitonin, centrifuged, and the pellet (mitochondria—Mito) and supernatants (cytosol—Cytos) were subjected to SDS-PAGE and immunoblotting, using anti-Cyto c, antibodies. Anti-VDAC1 and anti-GAPDH antibodies were used to verify that the cytosolic extracts are mitochondria-free. The results of Cyto c release from the mitochondria as induced by selenite are presented as immunoblots, with the cytosolic and mitochondrial fractions confirmed by immunoblotting of GAPDH (glyceraldehyde-3-phosphate dehydrogenase) and VDAC1, respectively, in the FIG. 15d. The data are presented as percent inhibition. The results shown correspond to means±SD (n=3). The closed circle (●) indicates VBIT-4 (compound of Formula 1), the open circle (◯) indicates compound of Formula 10 (AKOS-022), and an open square (□) indicates VBIT-3 (compound of Formula 2).
d. […]

[2] = Brain penetration after oral gavage, HPLC/MS of brain extracts; type: in vivo, C57BL/6 mice; settings: for concentration at 24 h: C57BL/6, mouse, brain, oral, 50 mg/kg, mouse, read-out: Compounds in brain extract
Procedure: C57BL/6 mice ([…]) were used. The animals received treatments with either free compounds of Formulae 1 and 10, or encapsulated compounds, prepared according to the Examples 16 and 17. Doses as indicated in the Table 4 below were administered in phosphate-buffered saline (PBS) through an oral gavage. After 12 hours and 24 hours, randomly selected mice from each group were sacrificed, their brains collected and stored in −80° C. The concentrations of the compounds in the tissues were determined by HPLC/MS analysis.
Tissue samples were homogenized in phosphate-buffered saline solution, then diluted with acetonitrile to 50% v/v, centrifuged at 10,000 g for 10 minutes, and supernatants were analyzed. The compounds concentrations in the brain extracts were determined from calibration curves. The results were the averaged from 2 mice for each treatment group/time point.

[3] = IC50 for several activities / effective range (activity not specified); settings: quoted for comparison with brain levels
[4] = system: 5XFAD transgenic mice with AD-like disease; experiment: Radial-arm water maze learning and memory task in 5XFAD transgenic mice; type: in vivo, mouse; settings: 5XFAD mice, 20 mg/kg in drinking water for 4 months, tested at six months of age
Procedure: Animals at age two months were assigned to three groups: transgenic treated (TG-T, 8 males and 3 females), transgenic vehicle (TG-V, 8 males and 3 females), and wild type (WT, 10 males and 8 females).
Two-months old 5XFAD mice were provided with 0.9% of DMSO solution or VBIT-4 solution (20 mg/kg in 0.9% DMSO) in drinking water replaced with fresh solution three times a week in the first month and thereafter twice a week for additional 3 months.
When the mice reached the age of six months, a two-day radial-arm water maze (RAWM) trial was performed as described previously (Jennifer Alamed, et al, Nature Protocols 1, (2006) 1671-1679) to test the effect of VBIT-4 on learning and memory task. The RAWM containing six swim paths (arms) was used. The arms were extending out from an open central area with an escape platform located at the end of one arm (the goal arm). The goal arm location remained constant for a given mouse. On day 1, mice were trained for 15 trials (spaced over 3 h), with trials alternating between visible and hidden platforms. On day 2, mice were trained for 15 trials with the hidden platform.
Entry into an incorrect arm was scored as an error, and the times spent by the animal to find the platform were recorded. […] To examine the source of differences the post-hoc test of Bonferroni-type was used. […]

SHSY5Y cells = experiment: 6-hydroxydopamine-induced cell toxicity, XTT cell viability; type: cell-based; settings: for IC50: Homo sapiens, SH-SY5Y, 24 h, read-out: IC50 (cell viability protection)
Procedure: SHSY5Y (obtained from ATCC) were grown at 37° C. under an atmosphere of 95% air and 5% CO2 in DMEM medium supplemented with 10% fetal bovine serum, 2 mM L-glutamine, 1000 U/ml penicillin, and 1 mg/ml streptomycin until 60-70% of confluence. Further, the cells were incubated with increasing concentrations of 6-hydroxydopamine. After 24 hours, and cells viability was assayed using the XTT (2,3-bis-(2-methoxy-4-nitro-5-sulfophenyl)-2H-tetrazolium-5-carboxanilide) method, according to the supplier instructions. […] The 50% decrease in cell survival was obtained at about 50 μM of 6-hydroxydopamine.
Cell viability as assayed following 24 h incubation with different concentrations of 6-hydroxydopamine in the absence (closed squares (▪)) or in the presence of VBIT-12 (15 μM, closed circles (●)) is shown.
Similarly, cells that were incubated with increasing concentrations of VBIT-12 in presence of either 30 or 50 μM of 6-hydroxydopamine that decreased cell viability by […], respectively, remained viable after 24 hours of the incubation. Cells viability is charted in FIG. 24C versus the concentrations of VBIT-12. Closed squares (▪) indicate control group without 6-hydroxydopamine, open circles (◯) indicates cells' viability when exposed to 30 μM of the 6-hydroxydopamine, and closed circles (●) indicate cells viability at 50 μM of the 6-hydroxydopamine.

Work on `O=C(CC(CO)N1CCN(c2ccc(OC(F)(F)F)cc2)CC1)Nc1ccc(Cl)cc1` (racemic) [Formula 1, N-(4-chlorophenyl)-4-hydroxy-3-(4-(4-(trifluoromethoxy)phenyl)-piperazin-1-yl)butanamide] yielded an IC50 [1] of 1.8 ± 0.24 µM, a concentration at 24 h ([2]; 50 mg/kg in PLGA nanoparticles, oral gavage) of 0.19 ± 0.07 µM and a concentration at 24 h ([2]; 50 mg/kg oral gavage, free compound) of 0.12 ± 0.02 µM. For the same molecule, the brain penetration ([2]; given orally, in solution or encapsulated in PLGA nano-particles) was “reached the brain”, the IC50 [3] was 1 µM and the “RAWM number of errors” value [4] was “better than untreated TG”. The “RAWM total time spent” value [4] was “better than untreated TG”.
For `O=C(O)CNC(=O)C1(Nc2ccccc2)CCN(Cc2cccc3ccccc23)CC1` [Formula 3], the “protection against 6-hydroxydopamine-induced decreased cell viability” value (SHSY5Y cells; 15 μM VBIT-12, 24 h, different 6-hydroxydopamine concentrations) was “protected against the reduction of cell survival by all 6-hydroxydopamine concentration used”, the IC50 (SHSY5Y cells; 30 μM 6-hydroxydopamine) was ~1 µM and the IC50 (SHSY5Y cells; 50 μM 6-hydroxydopamine) was ~2 µM.
